Experimental data: the NIST ThermoML archive (doi:10.1021/acs.jced.6b00210)
Numbers after ± are expanded uncertainties.

Assays:
[1] = 100 kPa, Liquid; for viscosity: Concentric cylinders viscometry; for mass density: Vibrating tube method
[2] = xn = mol fraction of the nth substance listed; conditions: 100 kPa, Liquid, x2 = 0; for viscosity: Concentric cylinders viscometry; for mass density: Vibrating tube method

Compound | viscosity ([1]; 293.15 K) [mPa·s] | mass density ([1]; 293.15 K) [kg/m3] | viscosity ([1]; 298.15 K) [mPa·s] | mass density ([1]; 298.15 K) [kg/m3] | viscosity ([1]; 303.15 K) [mPa·s] | mass density ([1]; 303.15 K) [kg/m3] | viscosity ([1]; 308.15 K) [mPa·s] | mass density ([1]; 308.15 K) [kg/m3] | viscosity ([1]; 313.15 K) [mPa·s] | mass density ([1]; 313.15 K) [kg/m3] | viscosity ([1]; 318.15 K) [mPa·s] | mass density ([1]; 318.15 K) [kg/m3] | viscosity ([1]; 323.15 K) [mPa·s] | mass density ([1]; 323.15 K) [kg/m3] | viscosity ([2]; 293.15 K) [mPa·s] | mass density ([2]; 293.15 K) [kg/m3] | viscosity ([2]; 298.15 K) [mPa·s] | mass density ([2]; 298.15 K) [kg/m3] | viscosity ([2]; 303.15 K) [mPa·s] | mass density ([2]; 303.15 K) [kg/m3] | other results
Nc1ccccc1 [aniline] | 4.37 ± 0.53 | 1021.7 ± 0.3 | 3.8 ± 0.46 | 1017.4 ± 0.3 | 3.13 ± 0.38 | 1013.2 ± 0.3 | 2.75 ± 0.33 | 1009 ± 0.3 | 2.43 ± 0.29 | 1004.7 ± 0.3 | 2.14 ± 0.26 | 1000.4 ± 0.3 | 1.96 ± 0.24 | 995.5 ± 0.3 |  |  |  |  |  |  | 
CCC(C)O (stereo not drawn) [butan-2-ol] | 3.67 ± 0.44 | 806.7 ± 0.2 | 3.04 ± 0.37 | 802.7 ± 0.2 | 2.54 ± 0.31 | 798.4 ± 0.2 | 2.13 ± 0.26 | 794.1 ± 0.2 | 1.8 ± 0.22 | 789.8 ± 0.2 | 1.54 ± 0.19 | 785.2 ± 0.2 | 1.33 ± 0.16 | 780.6 ± 0.2 |  |  |  |  |  |  | 
CCC(C)O (stereo not drawn) [butan-2-ol] + Nc1ccccc1 |  |  |  |  |  |  |  |  |  |  |  |  |  |  | 3.67 ± 0.44 | 806.7 ± 0.2 | 3.04 ± 0.37 | 802.7 ± 0.2 | 2.54 ± 0.31 | 798.4 ± 0.2 | viscosity ([2]; 308.15 K): 2.13 ± 0.26 mPa·s; mass density ([2]; 308.15 K): 794.1 ± 0.2 kg/m3; viscosity ([2]; 313.15 K): 1.8 ± 0.22 mPa·s; mass density ([2]; 313.15 K): 789.8 ± 0.2 kg/m3; viscosity ([2]; 318.15 K): 1.54 ± 0.19 mPa·s; mass density ([2]; 318.15 K): 785.2 ± 0.2 kg/m3; viscosity ([2]; 323.15 K): 1.33 ± 0.16 mPa·s; mass density ([2]; 323.15 K): 780.6 ± 0.2 kg/m3
CCCC(C)O (stereo not drawn) [pentan-2-ol] | 3.97 ± 0.48 | 809.3 ± 0.2 | 3.44 ± 0.41 | 805.3 ± 0.2 | 2.94 ± 0.35 | 801.2 ± 0.2 | 2.48 ± 0.3 | 797 ± 0.2 | 2.04 ± 0.25 | 792.7 ± 0.2 | 1.65 ± 0.2 | 788.4 ± 0.2 | 1.29 ± 0.16 | 784 ± 0.2 |  |  |  |  |  |  | 
CCCC(C)O (stereo not drawn) [pentan-2-ol] + Nc1ccccc1 |  |  |  |  |  |  |  |  |  |  |  |  |  |  | 3.97 ± 0.48 | 809.3 ± 0.2 | 3.44 ± 0.41 | 805.3 ± 0.2 | 2.94 ± 0.35 | 801.2 ± 0.2 | viscosity ([2]; 308.15 K): 2.48 ± 0.3 mPa·s; mass density ([2]; 308.15 K): 797 ± 0.2 kg/m3; viscosity ([2]; 313.15 K): 2.04 ± 0.25 mPa·s; mass density ([2]; 313.15 K): 792.7 ± 0.2 kg/m3; viscosity ([2]; 318.15 K): 1.65 ± 0.2 mPa·s; mass density ([2]; 318.15 K): 788.4 ± 0.2 kg/m3; viscosity ([2]; 323.15 K): 1.29 ± 0.16 mPa·s; mass density ([2]; 323.15 K): 784 ± 0.2 kg/m3
CC(C)O [propan-2-ol] | 2.42 ± 0.29 | 785.4 ± 0.2 | 2.08 ± 0.25 | 781.1 ± 0.2 | 1.8 ± 0.22 | 776.8 ± 0.2 | 1.56 ± 0.19 | 772.4 ± 0.2 | 1.36 ± 0.16 | 768 ± 0.2 | 1.19 ± 0.14 | 763.4 ± 0.2 | 1.05 ± 0.13 | 758.8 ± 0.2 |  |  |  |  |  |  | 
CC(C)O [propan-2-ol] + Nc1ccccc1 |  |  |  |  |  |  |  |  |  |  |  |  |  |  | 2.42 ± 0.29 | 785.4 ± 0.2 | 2.08 ± 0.25 | 781.1 ± 0.2 | 1.8 ± 0.22 | 776.8 ± 0.2 | viscosity ([2]; 308.15 K): 1.56 ± 0.19 mPa·s; mass density ([2]; 308.15 K): 772.4 ± 0.2 kg/m3; viscosity ([2]; 313.15 K): 1.36 ± 0.16 mPa·s; mass density ([2]; 313.15 K): 768 ± 0.2 kg/m3; viscosity ([2]; 318.15 K): 1.19 ± 0.14 mPa·s; mass density ([2]; 318.15 K): 763.4 ± 0.2 kg/m3; viscosity ([2]; 323.15 K): 1.05 ± 0.13 mPa·s; mass density ([2]; 323.15 K): 758.8 ± 0.2 kg/m3
